Data on 14 compounds can be found in patent US20090054376A1, “BENZOFURAN DERIVATIVES WITH THERAPEUTIC ACTIVITIES” (Pharmos Corporation, priority 2005, published 2009).

For assay [1], the system named is carrageenan induced inflammatory pain and paw edema. Briefly: Inflammatory pain and paw edema induced by carrageenan. It counts as in vivo, Male Sprague Dawley rats. As to conditions: for Percent Inhibition of Inflammatory Pain Responses, ΔForce / inhibition in vivo at 10 mg/kg / Percent Inhibition of Inflammatory Pain Responses, Edema / Percent Inhibition of Inflammatory Pain Responses, ΔLT: 10 mg/kg i.p.; for inhibition in vivo at 10 mg/kg / inhibition in vivo at 20 mg/kg: Rattus norvegicus, ip; for inhibition in vivo at 20 mg/kg: 20 mg/kg i.p. (two asterisks). Here is the method:
Male Sprague Dawley rats (average body weight 200 g, Harlan, Israel) were transiently sedated by placement on dry ice for the duration of the injections. Rats were injected subcutaneously, in the subplantar region of one (right) paw with 0.1 ml of 2% w/v λ Carrageenan in sterile saline. […] Test compounds were, unless otherwise stated, administered i.p. at initial single dose of 3, 10 or 20 mg/kg, and volume dose of 5 ml/kg, immediately after the carrageenan injection. Selected compounds were also tested p.o. following oral gavage. Vehicle and celecoxib treated animals were used as controls. Each treatment group comprised at least seven animals.
Before induction of inflammatory pain and three hours after injection, the animals reactions to pain stimuli were tested in two systems. The first stimulus was thermal and assessed by the Plantar Test according to Hargreaves, using Ugo Basile Model 7370. The scale was set to an intensity of 50 arbitrary units. The latency time till the animal lift a paw as a reaction to the thermal stimulus was recorded for both the inflamed and non-inflamed hind paws. The second stimulus was mechanical (tactile) and assessed using a Dynamic Plantar Sesthesiomether (Ugo Basile Model 73400-002). […] Finally, the impact on paw edema was assessed. Paw thickness was measured using a dial thickness gauge (Spring-dial, constant low pressure gauge, Mitutoyo, TG/L-1, 0.01 mm) and paw volume was measured using a plethysmometer (model #7150, Ugo Basile, Italy). At the end of the study, animals were euthanized.
The results are measured as the differences between the two hind paws at time 0 and 3 hours both as ALT, for the latency time in the thermal part of the study, and as ΔForce, for the mechanical part of the study. The paw volume is expressed as percent from vehicle treated animals. Results are expressed as mean±SEM for each treatment group and the differences among those groups are analyzed by analysis of variance (ANOVA) followed by post-hoc Tukey's test.
Results refer to i.p. treatment with 10 mg/kg. Results marked with one asterisk refer to a dose 3 mg/kg, whereas two asterisks refer to 20 mg/kg. Celecoxib is included as reference.

Assay [2] relates to visceral pain writhing responses. Put plainly: Visceral pain, acetic acid induced writhing responses. As to conditions: for inhibition in vivo at 2 mg/kg: Mus musculus, iv, read-out: Percent Inhibition of Visceral Pain Writhing Responses; for inhibition in vivo at 2 mg/kg / Percent Inhibition of Visceral Pain Writhing Responses: single dose 2 mg/kg i.v., compared to untreated group. It counts as in vivo, Male ICR mice. Here is the method:
Male ICR mice (average body weight 25 g, Harlan, Israel) were pretreated by i.v. injection at volume dose of 5 ml/kg of vehicle, control and test compounds at various doses. Other routes of administration were tested for selected compounds including i.m. or s.c. injections at volume dose of 2.5 ml/kg and p.o. gavage at volume dose of 5 ml/kg. Compounds were dissolved in CREMOPHOR®:Ethanol and diluted 1:20 in saline prior to injection or gavage. Compounds administered i.v. were injected fifteen minutes before pain induction, whereas compounds administered i.m., s.c. or p.o. were supplied thirty minutes before pain induction, unless otherwise indicated. Each treatment group, except for controls comprising at least 30 animals, was composed of at least 6 animals. Fifteen or thirty minutes after drug administration, depending on the route of administration, the mice were injected i.p. with 10 ml/kg of 0.6% acetic acid and the number of visceral pain related behaviors (writhing movements globally defined as WR, i.e. stretching, contractions of the abdomen accompanied by an elongation of the body and extension of the hind limbs) was counted over a period of 5 minutes, starting 5 minutes after the acetic acid administration. These visceral pain related behaviors were globally defined as writhing responses (WR). The results are expressed as mean number of writhing responses ±SEM. Data were analyzed using analysis of variance (ANOVA) followed by post-hoc Fisher test.
In general terms: An intraperitoneal irritant provokes the stretching counted in writhing tests.

The mark [3] stands for this setting: 3 hours after carrageenan, reduction in paw swelling, read-out: Percent Inhibition of Inflammatory Pain Responses, Edema.
The mark [4] stands for this setting: 3 hours, mechanical stimulus, read-out: Percent Inhibition of Inflammatory Pain Responses, ΔForce.
Where [5] appears, read: 3 hours, thermal stimulus, read-out: Percent Inhibition of Inflammatory Pain Responses, ΔLT.
Where [6] appears, read: 3 hours, reduction in paw swelling, read-out: Percent Inhibition of Inflammatory Pain Responses, Edema.
Setting [7] is: 3 hours after carrageenan, reduction in paw swelling.

Counter-ions that a name gives are not always drawn. Like-named read-outs stand apart in the source and are kept apart here. A value given as a limit tells only on which side of the number the result lay.

In the case of `Cc1ccc(-c2cc(C(F)(F)F)nn2-c2ccc(S(N)(=O)=O)cc2)cc1` [Celecoxib, reference compound], the “Percent Inhibition of Inflammatory Pain Responses, ΔForce” value (“Percent Inhibition … ΔForce” below) in assay [1] (3 hours, mechanical stimulus) is on record as 2%. In addition, the inhibition in vivo at 10 mg/kg turned out to be 45% in assay [1] (setting [3]), 2% in assay [1] (setting [4]) and 58% in assay [1] (setting [5]). In assay [2] (doses up to 10 mg/kg), the “activity in visceral pain model” value was “inactive”.

Take `CCCCCCC(C)(C)c1cc(OCC(=O)O)c2c(c1)OC1CCCCC21` (stereo not shown) [Compound C6S-18, [3-(1,1-dimethylheptyl)-5a,6,7,8,9,9a-hexahydro-dibenzofuran-1-yloxy]-acetic acid]: the results for the inhibition in vivo at 20 mg/kg in assay [1] (setting [4]), in assay [1] (setting [6]) and in assay [1] (setting [5]) were 31%, 48% and 49%, respectively.

As to `CCCCCCC(C)(C)c1cc(O)c2c(c1)OC1C(N)CCCCC21` (stereo not drawn) [C7S-32 HCl salt, 9-Amino-2-(1,1-dimethylheptyl)-5,6,7,8,9,9a-hexahydro-4bH-10-oxa-benzo[α]azulen-4-ol], the “inhibition of pain (writhing) response” value is reported as 50% in assay [2] (4 mg/kg i.v.) and 84% in assay [2] (10 mg/kg i.v.).

Regarding `CCCCC(C)(C)c1cc(O)c2c(c1)OC1CCCCCC21` (stereo not drawn) [Compound C7S-3, 2-(1,1-dimethylpentyl)-5,6,7,8,9,9a-hexahydro-4bH-10-oxa-benzo[α]azulen-4-ol], the “Percent Inhibition of Inflammatory Pain Responses, Edema” value (“Percent Inhibition … Edema” below) in assay [1] (setting [7]) worked out at 43%. Further, the “Percent Inhibition … ΔForce” value in assay [1] (3 hours, mechanical stimulus) was found to be 35%. In addition, the “Percent Inhibition of Inflammatory Pain Responses, ΔLT” value (from here on “Percent Inhibition … ΔLT”) in assay [1] (3 hours, thermal stimulus) amounted to 46%.

Consider `CCCCC(C)(C)c1cc(OCC(O)CO)c2c(c1)OC1CCCCC21` (stereo not shown) [Compound C6S-10, 3-[3-(1,1-Dimethylpentyl)-5a,6,7,8,9,9a-hexahydro-dibenzofuran-1-yloxy]-propane-1,2-diol], for which the inhibition in vivo at 20 mg/kg was determined as 24% in assay [1] (setting [4]), 37% in assay [1] (setting [6]) and 50% in assay [1] (setting [5]). Besides, the inhibition in vivo at 2 mg/kg in assay [2] amounted to 28%.

Turning to `CCCCCCC(C)(C)c1cc(OC(=O)CCNC)c2c(c1)OC1CC(C)(C)CCC21` (stereo not shown) [Compound C6S-39, 3-Methylamino-propionic acid 3-(1,1-dimethylheptyl)-7,7-dimethyl-5a,6,7,8,9,9a-hexahydro-dibenzofuran-1-yl ester], the “inhibition of writhing responses” value in assay [2] (0.02 mg/kg i.v., compared to vehicle) came to 38%. Further, the “inhibition of pain response” value in assay [2] (0.08 mg/kg i.v.) is “totally inhibited pain response”. Further, the “fold more potent than morphine” value in assay [2] (IC50 in visceral pain, i.v.) is reported as 35 fold. For the same compound, the inhibition in vivo at 2 mg/kg in assay [2] is over 90%. In addition, the “IC50 in visceral pain” value in assay [2] (i.v., estimated or calculated from dose range) is recorded as 0.03 mg/kg.

Consider `CCCCCCC(C)(C)c1cc2c(c(OP(=O)(O)O)c1)C1CCCCC(O)C1O2` (stereo not drawn) [Compound C7S-13, Phosphoric acid mono-[2-(1,1-dimethylheptyl)-9-hydroxy-5,6,7,8,9,9a-hexahydro-4bH-10-oxa-benzo[α]azulen-4-yl]ester], for which, in assay [1] (setting [7]), the “Percent Inhibition … Edema” value stood at 34%. Also, the “Percent Inhibition … ΔForce” value in assay [1] (3 hours, mechanical stimulus) turned out to be 6%. The “Percent Inhibition … ΔLT” value in assay [1] (3 hours, thermal stimulus) is listed as 0%. Further, the “Percent Inhibition of Visceral Pain Writhing Responses” value in assay [2] is reported as 72%.

As for `CCCCC(C)(C)c1cc2c(c(OP(=O)(O)O)c1)C1CCCCC1O2` (stereo not shown) [Compound C6S-16, Phosphoric acid mono-[3-(1,1-dimethylpentyl)-5a,6,7,8,9,9a-hexahydro-dibenzofuran-1-yl]ester], the results for the inhibition in vivo at 20 mg/kg in assay [1] (setting [4]), in assay [1] (setting [6]) and in assay [1] (setting [5]) were 6%, 31% and 69%, respectively.

Take `CCCCCCC(C)(C)c1cc(O)c2c(c1)OC1C(N)CCCCC21` (stereo not drawn) [Compound C7S-32, 9-Amino-2-(1,1-dimethylheptyl)-5,6,7,8,9,9a-hexahydro-4bH-10-oxa-benzo[α]azulen-4-ol]: the “inhibition of pain (writhing) response” value was found to be 38% in assay [2] (4 mg/kg i.v.) and 100% in assay [2] (10 mg/kg i.v.).

With `CCCCCCC(C)(C)c1cc(O)c2c3c(oc2c1)CCCC3` [Compound C6M-1, 3-(1,1-Dimethylheptyl)-6,7,8,9-tetrahydro-dibenzo-furan-1-ol], the values for the inhibition in vivo at 10 mg/kg in assay [1] (setting [3]), in assay [1] (setting [4]) and in assay [1] (setting [5]) were 31%, 12% and 12%, respectively.

Turning to `COC(=O)c1cc(O)c2c(c1)OC1CCCCC21` (stereo not shown) [Compound C6S-21, 1-hydroxy-5a,6,7,8,9,9a-hexahydro-dibenzofuran-3-carboxylic acid methyl ester], the inhibition in vivo at 20 mg/kg in assay [1] (setting [6]) is 38%; in assay [1] (setting [5]) it was 44%.

With `CCCCCCC(C)(C)c1cc(O)c2c(c1)OC1(C)C(C)CCC21` (stereo not drawn) [Compound C5S-4, 6-(1,1-dimethylheptyl)-1,8a-dimethyl-2,3,3a,8a-tetrahydro-1H-8-oxa-cyclo-penta[α]inden-4-ol], the “Percent Inhibition … Edema” value in assay [1] (setting [7]) was 49%. The “Percent Inhibition … ΔForce” value in assay [1] (3 hours, mechanical stimulus) came to 88%. In assay [1] (3 hours, thermal stimulus), the “Percent Inhibition … ΔLT” value was 100%.

For the compound `CCCCCCC(C)(C)c1cc(OC(=O)C=CC(=O)O)c2c(c1)OC1(C)C(C)CCC21` (stereo not drawn) [Compound C5S-5, But-2-enedioic acid mono-[6-(1,1-dimethylheptyl)-1,8a-dimethyl-2,3,3a,8a-tetrahydro-1H-8-oxa-cyclopenta[α]inden-4-yl]ester], the “Percent Inhibition of Visceral Pain Writhing Responses” value in assay [2] was determined as 27%.

`CCCCC(C)(C)c1cc(O)c2c(c1)OC1CCCCC21C` (stereo not shown) [Compound C6S-12, 3-(1,1-dimethylpentyl)-9a-methyl-5a,6,7,8,9,9a-hexahydro-dibenzofuran-1-ol]: the inhibition in vivo at 10 mg/kg was found to be 53% in assay [1] (setting [3]), 37% in assay [1] (setting [4]) and 33% in assay [1] (setting [5]).
